Experimental data: US9234893B2, “Marker comprising anti-CK8/18 complex autoantibody and its use for diagnosing cancer” (Korea Research Institute of Bioscience and Biotechnology, priority 2011, dated 2016)

System: TAB-K94 antibody
Test: ELISA with selected phage as coating antigen and TAB-K94 antibody as primary antibody
Assay type: binding, mouse
Details: 100 ng/100 μl TAB-K94 antibody, absorbance at 450 nm
Method: In order to examine the reactivity of the selected TAB-K94 antibody-specific phages against TAB-K94 antibody, ELISA was performed using the phage as a coating antigen and TAB-K94 antibody as a primary antibody. The detailed method is as follows:
[…] was diluted in 100 μl of a coating solution (0.1 M sodium bicarbonate buffer, pH 8.6) and added to each well of 96-well Maxisorp ELISA plate. For antigen coating, the phage-added plate was stored at 4° C. for 16 hours or longer. After phage coating, 300 μl of skim milk solution (5% (w/v) skim milk/TBST) was added, and reacted at room temperature for 1 hour to block the remaining sites after antigen coating. After blocking, the plate was washed with TBST (TBS containing 0.1% Tween-20) twice, and 100 ng/100 μl of TAB-K94 antibody was added thereto, and reacted at room temperature for 90 minutes. […] The secondary antibody was also reacted at room temperature for 90 minutes, and the plate was washed with TBST six times. Color development was performed using a TMB solution (Pierce) as a substrate for HRP. Absorbance was measured at 450 nm to quantify the antigen-antibody reaction.

## TLSHTRT (Thr-Leu-Ser-His-Thr-Arg-Thr) [K94p7]
  reactivity against TAB-K94 antibody in ELISA: no reactivity
